# From patent US7112607B2, “Allosteric adenosine receptor modulators” (King Pharmaceuticals Research & Development, Inc., priority 1997, dated 2006)
# Target: T1, human recombinant A1 adenosine receptors (Homo sapiens, UniProt P30542)
# T1 construct: expressed in transfected cells; host or cells: Chinese hamster ovary (CHO) cells, CHO:huA1, G-418 selected
# T1 sequence (P30542 1-326): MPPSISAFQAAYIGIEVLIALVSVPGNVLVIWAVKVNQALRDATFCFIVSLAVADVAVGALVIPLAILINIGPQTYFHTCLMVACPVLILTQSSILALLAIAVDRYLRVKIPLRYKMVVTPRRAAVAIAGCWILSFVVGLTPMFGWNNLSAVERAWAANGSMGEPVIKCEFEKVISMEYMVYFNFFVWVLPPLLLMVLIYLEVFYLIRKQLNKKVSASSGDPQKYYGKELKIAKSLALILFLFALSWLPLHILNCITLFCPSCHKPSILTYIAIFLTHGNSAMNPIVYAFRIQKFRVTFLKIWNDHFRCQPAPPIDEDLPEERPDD
# Test: Allosteric enhancement: reduction of cAMP content of CHO:huA1 cells (radioimmunoassay)
# Type: cell-based
# Details: forskolin 1 μM, rolipram 20 μM, CPA 0.01 nM, adenosine deaminase, 6 min at 36° C.; for inhibition at 0.01 µM / inhibition at 0.1 µM / inhibition at 1 µM / inhibition at 10 µM: 0.1 h, read-out: Change in cAMP Content from Control (mean + SEM)
# Procedure: Chinese hamster ovary cells expressing human recombinant A1 adenosine receptors (CHO:huA1 cells) at a density of approximately 8000 fmol/mg protein were prepared as previously described (Kollias-Baker et al., (1997), J. Pharmacol. Exp. Ther. 281: 761–768) and aliquots of the cells at low passage numbers were frozen and stored in liquid nitrogen. When compounds were tested, an aliquot of CHO:huA1 cells were rapidly thawed after removal from liquid nitrogen, then grown in Ham's F12 culture medium with 10% fetal bovine serum and 0.5 mg/mL of antibiotic G-418 (Shryock, Ozeck, and Belardinelli (1998), Mol. Pharmacol 53: 886–893). Cells were passaged thrice weekly. Aliquots of cells were placed into 12-well plates with culture medium, serum, and antibiotic for 48 hours, by which time the cells had grown to a confluent monolayer.
# Allosteric enhancement was measured as the action of a test compound at different concentrations (0.01, 0.1, 1 and 10 μM) to reduce the cAMP content of CHO:huA1 cells. To initiate an experiment, growth medium was removed from the 12-well plates and cells were washed once with warm Hanks' buffered saline. The wash solution was then removed and replaced with fresh Hanks' solution containing forskolin (1 μM), rolipram (20 μM), N^6-cyclopentyladenosine (CPA, 0.01 nM), adenosine deaminase (2 U/mL), and the test compound. Forskolin was used to stimulate the activity of adenylyl cyclase, rolipram to inhibit cAMP phosphodiesterase, adenosine deaminase to degrade endogenous adenosine, and CPA to cause a small increase of the number of activated adenosine receptors. After 6 min of incubation at 36° C. in the presence of test compound, the incubation solution was removed and hydrochloric acid (final concentration 50 mM) was added to terminate drug action.
# The content of cAMP in acidified extracts of cells was determined by radioimmunoassay as previously described (Kollias-Baker et al., (1997), J. Pharmacol. Exp. Ther. 281: 761–768). Because the magnitude of the effects of allosteric enhancers on CHO:huA1 cells changed subtly with passage number and differed slightly among different aliquots of cells, the actions of the test compounds and the action of a reference compound (PD 81,723) were assessed in each experiment. The effect of each test compound on cAMP content is presented in Table 1 as a percentage of the value of cAMP content in the absence of drug (control, 100%). Each value is a mean±standard error of 6 determinations in each of the number of experiments indicated in the “n” column of the table.
inhibition at 0.01 µM (0.01 μM test compound),inhibition at 0.1 µM (0.1 μM test compound),inhibition at 1 µM (1 μM test compound),inhibition at 10 µM (10 μM test compound),Change in cAMP Content from Control (mean + SEM) (0.01 μM test compound),Change in cAMP Content from Control (mean + SEM) (0.1 μM test compound),Change in cAMP Content from Control (mean + SEM) (1 μM test compound),Change in cAMP Content from Control (mean + SEM) (10 μM test compound),SMILES
3 ± 4%,4 ± 4%,24 ± 5%,67 ± 2%,–,–,–,–,"Nc1sc2c(c1C(=O)c1ccc(I)c3ccccc13)CCCC2 [Example 26, (2-Amino-4,5,6,7-tetrahydrobenzo[b]thiophen-3-yl)-(4-iodonaphthalen-1-yl)-methanone]"
-2 ± 4%,-7 ± 5%,-0.1 ± 5%,-31 ± 3%,–,–,–,–,"Nc1sc2c(c1C(=O)c1ccccn1)CCN(Cc1ccccc1)C2 [Example 20, (2-Amino-6-benzyl-4,5,6,7-tetrahydrothieno[2,3-c]pyridin-3-yl)-pyridin-2-yl-methanone]"
-0.7 ± 3%,8 ± 3%,-4 ± 4%,-14 ± 4%,–,–,–,–,"Cc1sc(N)c(C(=O)c2ccccn2)c1C [Example 21, (2-Amino-4,5-dimethylthiophen-3-yl)-pyridin-2-yl-methanone]"
-9 ± 4%,6 ± 3%,15 ± 2%,35 ± 2%,–,–,–,–,"Nc1sc2c(c1C(=O)c1ccccc1)CCSC2 [Example 1, (2-Amino-4,7-dihydro-5H-thieno[2,3-c]thiopyran-3-yl)-phenyl-methanone]"
4 ± 5%,-11 ± 5%,7 ± 5%,-5 ± 10%,–,–,–,–,"Cc1sc(N)c(C(=O)c2ccco2)c1C [Example 13, (2-Amino-4,5-dimethylthiophen-3-yl)-furan-2-yl-methanone]"
6 ± 3%,8 ± 3%,22 ± 4%,75 ± 1%,–,–,–,–,"Nc1sc2c(c1C(=O)c1ccc(I)c3ccccc13)CCC2 [Example 24, (2-Amino-1,6-dihydro-4H-cyclopenta[b]thiophen-3-yl)-(4-iodonaphthalen-1-yl)-methanone]"
0.6 ± 2%,3 ± 3%,-6 ± 5%,45 ± 2%,–,–,–,–,"Cc1sc(N)c(C(=O)c2cccc3ccccc23)c1C [Example 8, (2-Amino-4,5-dimethylthiophen-3-yl)-naphthalen-1-yl-methanone]"
27 ± 4%,0.6 ± 4%,15 ± 3%,8 ± 11%,–,–,–,–,"Nc1sc2c(c1C(=O)c1ccco1)CCN(Cc1ccccc1)C2 [Example 12, (2-Amino-6-benzyl-4,5,6,7-tetrahydrothieno[2,3-c]pyridin-3-yl)-furan-2-yl-methanone]"
1 ± 3%,4 ± 3%,8 ± 3%,28 ± 3%,–,–,–,–,"Cc1sc(N)c(C(=O)c2ccc3ccccc3c2)c1C [Example 33, (2-Amino-4,5-dimethylthiophen-3-yl)-naphthalen-2-yl-methanone]"
11 ± 4%,15 ± 4%,22 ± 3%,52 ± 3%,–,–,–,–,"Nc1sc2c(c1C(=O)c1cccc3ccccc13)CCCC2 [Example 6, (2-Amino-4,5,6,7-tetrahydrobenzo[b]thiophen-3-yl)-naphthalen-1-yl-methanone]"
–,–,–,–,−11 ± 3%,−11 ± 5%,−16 ± 3%,−40 ± 2%,Nc1sc2c(c1C(=O)c1cccs1)CCCC2 [Example 5]
-3 ± 4%,14 ± 4%,0.8 ± 3%,23 ± 2%,–,–,–,–,"Nc1sc2c(c1C(=O)c1ccco1)CCC2 [Example 11, (2-Amino-5,6-dihydro-4H-cyclopenta[b]thiophen-3-yl)-furan-2-yl-methanone]"
-4 ± 3%,-14 ± 4%,10 ± 2%,-11 ± 4%,–,–,–,–,"Nc1sc2c(c1C(=O)c1cc3ccccc3o1)CCN(Cc1ccccc1)C2 [Example 16, (2-Amino-6-benzyl-4,5,6,7-tetrahydrothieno[2,3-c]pyridin-3-yl)-benzofuran-2-yl-methanone]"
11 ± 3%,-3 ± 3%,25 ± 4%,44 ± 2%,–,–,–,–,"Nc1sc2c(c1C(=O)c1ccc(Cl)c3ccccc13)CCCC2 [Example 28, (2-Amino-4,5,6,7-tetrahydrobenzo[b]thiophen-3-yl)-(4-chloronaphthalen-1-yl)-methanone]"
8 ± 5%,14 ± 4%,25 ± 5%,-8 ± 5%,–,–,–,–,"CC(=O)Nc1sc2c(c1C(=O)c1ccco1)CCCC2 [Example 10, N-[3-(Furan-2-carbonyl)-4,5,6,7-tetrahydrobenzo[b]thiophen-2-yl]-acetamide]"
1 ± 4%,-11 ± 4%,-1 ± 3%,35 ± 4%,–,–,–,–,"Nc1sc2c(c1C(=O)c1ccc(Cl)cc1)CCS2 [Example 3, (2-Amino-4,5-dihydrothieno[2,3-b]thiophen-3-yl)-(4-chlorophenyl)-methanone]"
-15 ± 3%,10 ± 4%,-16 ± 5%,0.3 ± 5%,–,–,–,–,"Nc1sc2c(c1C(=O)c1ccc(Cl)cc1)CCSC2 [Example 2, (2-Amino-4,7-dihydro-5H-thieno[2,3-c]thiopyran-3-yl)-(4-chlorophenyl)-methanone]"
21 ± 3%,7 ± 4%,25 ± 4%,-19 ± 2%,–,–,–,–,"Nc1sc2c(c1C(=O)c1cccc3ccccc13)CCN(Cc1ccccc1)C2 [Example 9, (2-Amino-6-benzyl-4,5,6,7-tetrahydrothieno[2,3-c]pyridin-3-yl)-naphthalen-1-yl-methanone]"
6 ± 3%,10 ± 2%,29 ± 2%,72 ± 1%,–,–,–,–,"Nc1sc2c(c1C(=O)c1ccc(Br)c3ccccc13)CCCC2 [Example 29, (2-Amino-4,5,6,7-tetrahydrobenzo[b]thiophen-3-yl)-(4-bromonaphthalen-1-yl)-methanone]"
–,–,–,–,−10 ± 2%,−15 ± 4%,−27 ± 2%,−55 ± 2%,"Nc1sc2c(c1C(=O)c1ccc(Cl)c3ccccc13)CCC2 [Example 25, (2-Amino-5,6-dihydro-4H-cyclopenta[b]thiophen-3-yl)-(4-chloronaph-thalen-1-yl)-methanone]"
0.6 ± 3%,6 ± 1%,29 ± 4%,60 ± 1%,–,–,–,–,"Nc1sc2c(c1C(=O)c1cccc3ccccc13)CCC2 [Example 7, (2-Amino-5,6-dihydro-4H-cyclopenta[b]thiophen-3-yl)-naphthalen-1-yl-methanone]"
